Earlier results on two molecules are cited in patent publication US20060270013A1 (priority 2003, published 2006).

The target in the data set is NADPH-dependent benzil reductase (Bacillus cereus, UniProt Q8RJB2). The settings on record: substrate of benzil reductase; Maruyama et al. 2002.
Chain of NADPH-dependent benzil reductase (Q8RJB2 whole entry): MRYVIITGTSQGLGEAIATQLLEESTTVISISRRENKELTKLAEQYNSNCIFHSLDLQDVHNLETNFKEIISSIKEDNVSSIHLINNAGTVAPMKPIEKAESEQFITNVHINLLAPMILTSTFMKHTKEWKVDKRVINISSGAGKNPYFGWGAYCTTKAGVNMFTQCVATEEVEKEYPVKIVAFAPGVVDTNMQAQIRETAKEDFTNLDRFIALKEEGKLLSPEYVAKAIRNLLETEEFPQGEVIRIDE

For `CC(=O)C(=O)c1ccccc1` [1-phenyl-1,2-propanedione], the Km was 42 µM and the catalytic constant (kcat) was 2.75 s⁻¹.
Take `O=Cc1ccc([N+](=O)[O-])cc1` [p-nitrobenzaldehyde]: the Km was 261 µM and the kcat was 0.02 s⁻¹.

As a reminder, the Km is the substrate concentration at which the rate is half of its maximum. The term kcat denotes the maximal rate divided by the concentration of active sites.
